Results reported in patent US20240366813A1, “PEPTIDE-UREA DERIVATIVE, PHARMACEUTICAL COMPOSITION CONTAINING SAME AND APPLICATION THEREOF” (Bivision Pharmaceuticals, Inc., priority 0001, published 2024).

Tested on: 22rv1 PSMA-expressing tumors
Assay: SPECT imaging in 22rv1 tumor-bearing balb/c nude mice (effect example 10)
Format: in vivo
Conditions: about 7.4 MBq/mouse tail vein
Method: About 4-5 weeks old (balb/c nude, Beijing Vital River) mice were subcutaneously inoculated with 5×10^6 cells of 22rv1 (in 50% Matrigel, Corning) on the right scapula of animals. When the tumor grew to a size of about 150-350 mm^3, after anesthesia with isoflurane, ^177Lu-PSMA-617, ^177Lu-E3, ^177Lu-E4, ^177Lu-E8, ^177Lu-E16, ^177Lu-E18, ^177Lu-E24 radiolabeled compounds were injected into the tail vein of mice (about 7.4 MBq/mouse, specific activity: 22423.82 KBq/μg). Subsequently, SPECT imaging was performed with a small animal SPECT-CT imaging system (U-SPECT+/CT, MI Labs) at 1 h, 5 h, 24 h, 48 h and 72 h, respectively. ^177Lu-PSMA-617 is shown in FIG. 9, ^177Lu-E3 is shown in FIG. 10, ^177Lu-E4 is shown in FIG. 11, ^177Lu-E8 is shown in FIG. 12, ^177Lu-E16 is shown in FIG. 13, ^177Lu-[…] is shown in FIG. 14, and ^177Lu-E24 is shown in FIG. 15. […] The main way of drug elimination is through the kidney.

O=C([O-])CN1CCN(CC(=O)[O-])CCN(CC(=O)N2CCc3cc(C(=O)NC(Cc4ccc5ccccc5c4)C(=O)NCCCCC(NC(=O)NC(CCC(=O)O)C(=O)O)C(=O)O)ccc3C2)CCN(CC(=O)[O-])CC1.[177Lu+3] (centres unmarked) [^177Lu-E3]
specific absorption in PSMA-expressing tumors after 72 hours: high specific absorption
uptake of radioactivity in PSMA-expressing tumors compared with ^177Lu-PSMA-617: higher uptake of radioactivity
